Target: T1, Human farnesyl pyrophosphate synthase (FPPS, Swissprot ID: P14324) (Homo sapiens, UniProt P14324)
T1 construct: made in house
T1 sequence (P14324 67-419 limits assumed): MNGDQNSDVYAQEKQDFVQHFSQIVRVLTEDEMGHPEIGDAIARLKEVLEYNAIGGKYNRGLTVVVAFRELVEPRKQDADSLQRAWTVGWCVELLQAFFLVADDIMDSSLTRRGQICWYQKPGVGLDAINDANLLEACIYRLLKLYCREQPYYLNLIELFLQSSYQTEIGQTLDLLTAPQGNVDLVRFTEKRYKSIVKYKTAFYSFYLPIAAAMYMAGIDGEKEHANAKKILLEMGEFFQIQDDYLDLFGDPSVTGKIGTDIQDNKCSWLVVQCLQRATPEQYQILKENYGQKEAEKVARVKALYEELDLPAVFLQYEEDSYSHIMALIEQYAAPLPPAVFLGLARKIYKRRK
Assay: FPPS assay (label-free LC/MS/MS quantification of farnesyl pyrophosphate)
Format: biochemical
Conditions: cell-free in vitro FPPS assay; 5 min pre-incubation with enzyme, GPP/IPP 5 μM each, 30 min reaction
Protocol: For example, in a cell-free in vitro assay the superiority of compounds of the formula I over compounds already known can be shown. Briefly, the reaction proceeds in the presence of enzyme and an inhibitor of the formula I, and the reaction product (farneysyl pyrophosphate) is quantified by LC/MS/MS.
In detail, the inhibitor and enzyme are pre-incubated before adding the substrates
The assay is a label-free assay for farnesyl pyrophosphate synthase (FPPS) based on LC/MS/MS. This method quantifies in-vitro untagged farnesyl pyrophosphate (FPP) and is suitable for high throughput screening (HTS) to find inhibitors of FPPS and for the determinations of IC50 values of candidate compounds. The analysis time is 2.0 minutes with a total cycle time of 2.5 minutes. The analysis can be formatted for 384-well plates resulting in an analysis time of 16 hours per plate.
Pentanol, methanol, and isopropyl alcohol are HPLC grade and obtained from Fisher Scientific, DMIPA is from Sigma-Aldrich. Water is from an in-house Milli-Q system. The assay buffer (20 mM HEPES, 5 mM MgCl2 and 1 mM CaCl2) is prepared by dilution from […] stock solutions obtained from Sigma-Aldrich. Standards of geranyl pyrophosphate (GPP), […], and farnesyl S-thiolopyrophosphate (FSPP) are from Echelon Biosciences (Salt Lake City, Utah). Human farnesyl pyrophosphate synthase (FPPS, Swissprot ID: P14324) (13.8 mg/mL) is prepared as described by Rondeau at al (ChemMedChem 2006, 1, 267-273.
LC/MS/MS analyses are performed on a Micromass Quattro Micro tandem quadrupole mass analyser (Waters Corp, Milford, Mass., USA) interfaced to an Agilent 1100 binary LC pump Agilent Technologies, Inc., Santa Clara, Calif., USA). Injection is performed with a CTC Analytics autosampler (Leap Technologies Inc., Carrboro, N.C., USA) using an injection loop size of 2.5 μL. Chromatography is performed on a Waters 2.1×20 mm Xterra MS C18 5 μm guard column (P/N186000652) (Waters Corp., Milford, Mass., USA) contained in a guard column holder (P/N 186000262) using 0.1% DMIPA/methanol as solvent A and 0.1% DMIPA/water as solvent B (DMIPA is dimethylisopropylamine). The gradient is 5% A from 0.00 to 0.30 min, 50% A at 0.31 min., 80% A at 1.00 min., and 5% A from 1.01 to 2.00 min. The flow rate is 0.3 mL/min, and the flow is diverted to waste from 0.00 to 0.50 min and again from 1.20 to 2.00 min.
The Multiple Reaction Monitoring (MRM) transitions monitored are 381->79—for FPP and 397->159—for FSPP at a collision energy of 22 eV and a collision cell pressure of 2.1×10-3 mbar of Ar. The dwell time per transition is 400 msec with a span of 0.4 Da. The inter-channel delay and interscan delay are both 0.02 sec. Other mass spectrometric operating parameters are: capillary, 2.0 kV; cone, 35 V; extractor, 2.0 V, source temp., 100 ° C.; desolvation gas temp., 250° C.; desolvation gas flow, 650 L/hr; cone gas flow, 25 L/hr; multiplier, 650 V.
The total cycle time per sample is 2.5 minutes. Since the analysis is formatted for 384-well plates, a plate is analyzed in 16 hours. The chromatograms are processed using Quanlynx software, which divides the area of individual FPP peaks by the area of the FSPP peaks (internal standard). The resulting values are reported as the relative response for the corresponding sample well.
Into each well of a 384-well plate, 5 μL of compound in 20% DMSO/water is placed. […]

IC50 [nM]	SMILES
1.9	O=P(O)(O)C(O)(Cn1cncc1CCCc1ccccc1)P(=O)(O)O [Example 1, {1-Hydroxy-2-[5-(3-phenyl-propyl)-imidazol-1-yl]-1-phosphono-ethyl}-phosphonic acid]
1.4	O=P(O)(O)C(O)(Cn1cnc(Cc2ccccc2)c1)P(=O)(O)O [Example 2, [2-(4-Benzyl-imidazol-1-yl)-1-hydroxy-1-phosphono-ethyl]-phosphonic acid]
1.9	O=P(O)(O)C(O)(Cn1cnc(CCc2ccccc2)c1)P(=O)(O)O [Example 3, [1-Hydroxy-2-(4-phenethyl-imidazol-1-yl)-1-phosphono-ethyl]-phosphonic acid]
6.7	O=P(O)(O)C(O)(Cn1cncc1CCc1ccccc1)P(=O)(O)O [Example 4, [1-Hydroxy-2-(5-phenethyl-imidazol-1-yl)-1-phosphono-ethyl]-phosphonic acid]
3.5	Cc1ccc(CCCc2cncn2CC(O)(P(=O)(O)O)P(=O)(O)O)cc1 [Example 5, {1-Hydroxy-1-phosphono-2-[5-(3-p-tolyl-propyl)-imidazol-1-yl]-ethyl}-phosphonic acid]
